Reference: patent publication US20230310428A1, “EGFR INHIBITOR AND PREPARATION METHOD AND USE THEREOF” (HONGYUN BIOTECH CO., LTD., priority 2020, published 2023)
pIC50: −log10 of the molar value.

What was measured:
Experiment in all cases: Growth inhibitory activity of compounds on BaF3 cell lines stably transfected with kinase (MTS, 48 h)
Assay type in all cases: cell-based
[1] = molecular target: T1, various mutants of kinase EGFR (BaF3 cell lines stably transfected with kinase) (Homo sapiens, UniProt P00533, T790M, form not given); details: BaF3 cells stably transfected with EGFR Δ19Del/T790M, read-out: IC50, growth inhibition, Δ19Del/T790M
T1 construct: other: BaF3 cells stably transfected with EGFR Δ19Del/T790M; MTS, 48 h; other: BaF3 cell line stably transfected with EGFR Δ19Del/T790M; MTS, 48
In short: (§1)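 First, cells were seeded and treated with an eight-point threefold dilution series starting at 10 µM (0.1% DMSO). After 48 h at 37 °C, MTS reagent was added for 1-4 h before absorbance at 490 nm. Inhibition rates gave the IC50.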

[2] = molecular target: T2, various mutants of kinase EGFR (BaF3 cell lines stably transfected with kinase) (Homo sapiens, UniProt P00533, L858R); details: BaF3 cells stably transfected with EGFR L858R, read-out: IC50, growth inhibition, L858R
T2 construct: expressed in transfected cells; host or cells: BaF3
In short: as §1

[3] = molecular target: T3, various mutants of kinase EGFR (BaF3 cell lines stably transfected with kinase) (Homo sapiens, UniProt P00533, L858R/T790M); details: BaF3 cells stably transfected with EGFR L858R/T790M, read-out: IC50, growth inhibition, L858R/T790M
T3 construct: expressed in transfected cells; host or cells: BaF3
In short: as §1

[4] = molecular target: T4, various mutants of kinase EGFR (BaF3 cell lines stably transfected with kinase) (Homo sapiens, UniProt P00533); details: BaF3 cells stably transfected with EGFR Δ19Del, read-out: IC50, growth inhibition, Δ19Del
T4 construct: other: BaF3 cells stably transfected with EGFR Δ19Del; MTS, 48 h; other: BaF3 cell line stably transfected with EGFR Δ19Del
In short: as §1

[5] = molecular target: T5, various mutants of kinase EGFR (BaF3 cell lines stably transfected with kinase) (Homo sapiens, UniProt P00533, T790M/C797S, form not given); details: BaF3 cells stably transfected with EGFR Δ19Del/T790M/C797S, read-out: IC50, growth inhibition, Δ19Del/T790M/C797S
T5 construct: other: BaF3 cells stably transfected with EGFR Δ19Del/T790M/C797S; MTS, 48; other: BaF3 cell line stably transfected with EGFR Δ19Del/T790M/C7
In short: as §1

[6] = molecular target: T6, various mutants of kinase EGFR (BaF3 cell lines stably transfected with kinase) (Homo sapiens, UniProt P00533, C797S/L858R/T790M); details: BaF3 cells stably transfected with EGFR L858R/T790M/C797S, read-out: IC50, growth inhibition, L858R/T790M/C797S
T6 construct: expressed in transfected cells; host or cells: BaF3
In short: as §1

T1 sequence (P00533 with tags, fused parts or gaps DEL746-750/T790M, form open): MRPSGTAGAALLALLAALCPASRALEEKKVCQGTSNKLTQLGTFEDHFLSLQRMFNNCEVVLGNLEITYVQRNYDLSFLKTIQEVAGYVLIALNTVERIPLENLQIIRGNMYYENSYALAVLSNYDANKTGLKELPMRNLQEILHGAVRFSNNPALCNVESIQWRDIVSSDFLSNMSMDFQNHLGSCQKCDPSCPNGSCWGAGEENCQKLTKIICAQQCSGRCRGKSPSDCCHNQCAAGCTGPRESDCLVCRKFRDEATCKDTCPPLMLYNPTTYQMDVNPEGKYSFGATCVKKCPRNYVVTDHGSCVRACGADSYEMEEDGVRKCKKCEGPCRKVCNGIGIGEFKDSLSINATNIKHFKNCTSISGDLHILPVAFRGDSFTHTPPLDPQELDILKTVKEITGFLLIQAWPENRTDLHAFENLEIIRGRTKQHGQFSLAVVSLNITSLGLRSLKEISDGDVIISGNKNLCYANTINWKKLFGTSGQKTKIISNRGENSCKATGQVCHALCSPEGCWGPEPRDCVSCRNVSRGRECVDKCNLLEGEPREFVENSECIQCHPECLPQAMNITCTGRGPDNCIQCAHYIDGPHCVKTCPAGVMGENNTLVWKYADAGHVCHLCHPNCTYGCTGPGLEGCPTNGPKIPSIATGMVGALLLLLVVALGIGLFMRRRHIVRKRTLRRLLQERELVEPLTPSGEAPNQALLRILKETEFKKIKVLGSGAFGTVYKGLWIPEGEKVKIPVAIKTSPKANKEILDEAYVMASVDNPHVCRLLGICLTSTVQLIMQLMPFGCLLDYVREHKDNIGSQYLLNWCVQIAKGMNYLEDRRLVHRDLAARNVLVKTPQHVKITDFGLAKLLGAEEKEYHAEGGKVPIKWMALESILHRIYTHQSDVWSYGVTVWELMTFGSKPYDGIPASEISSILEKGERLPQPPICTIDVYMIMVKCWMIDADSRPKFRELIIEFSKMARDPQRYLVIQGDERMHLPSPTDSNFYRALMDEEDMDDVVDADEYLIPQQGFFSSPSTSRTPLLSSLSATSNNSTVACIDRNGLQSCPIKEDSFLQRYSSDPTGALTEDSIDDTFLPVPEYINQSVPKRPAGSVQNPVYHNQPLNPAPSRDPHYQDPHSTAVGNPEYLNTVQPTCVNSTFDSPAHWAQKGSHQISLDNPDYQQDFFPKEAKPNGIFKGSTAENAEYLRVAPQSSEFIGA
T3 sequence (P00533 25-1210 T790M/L858R): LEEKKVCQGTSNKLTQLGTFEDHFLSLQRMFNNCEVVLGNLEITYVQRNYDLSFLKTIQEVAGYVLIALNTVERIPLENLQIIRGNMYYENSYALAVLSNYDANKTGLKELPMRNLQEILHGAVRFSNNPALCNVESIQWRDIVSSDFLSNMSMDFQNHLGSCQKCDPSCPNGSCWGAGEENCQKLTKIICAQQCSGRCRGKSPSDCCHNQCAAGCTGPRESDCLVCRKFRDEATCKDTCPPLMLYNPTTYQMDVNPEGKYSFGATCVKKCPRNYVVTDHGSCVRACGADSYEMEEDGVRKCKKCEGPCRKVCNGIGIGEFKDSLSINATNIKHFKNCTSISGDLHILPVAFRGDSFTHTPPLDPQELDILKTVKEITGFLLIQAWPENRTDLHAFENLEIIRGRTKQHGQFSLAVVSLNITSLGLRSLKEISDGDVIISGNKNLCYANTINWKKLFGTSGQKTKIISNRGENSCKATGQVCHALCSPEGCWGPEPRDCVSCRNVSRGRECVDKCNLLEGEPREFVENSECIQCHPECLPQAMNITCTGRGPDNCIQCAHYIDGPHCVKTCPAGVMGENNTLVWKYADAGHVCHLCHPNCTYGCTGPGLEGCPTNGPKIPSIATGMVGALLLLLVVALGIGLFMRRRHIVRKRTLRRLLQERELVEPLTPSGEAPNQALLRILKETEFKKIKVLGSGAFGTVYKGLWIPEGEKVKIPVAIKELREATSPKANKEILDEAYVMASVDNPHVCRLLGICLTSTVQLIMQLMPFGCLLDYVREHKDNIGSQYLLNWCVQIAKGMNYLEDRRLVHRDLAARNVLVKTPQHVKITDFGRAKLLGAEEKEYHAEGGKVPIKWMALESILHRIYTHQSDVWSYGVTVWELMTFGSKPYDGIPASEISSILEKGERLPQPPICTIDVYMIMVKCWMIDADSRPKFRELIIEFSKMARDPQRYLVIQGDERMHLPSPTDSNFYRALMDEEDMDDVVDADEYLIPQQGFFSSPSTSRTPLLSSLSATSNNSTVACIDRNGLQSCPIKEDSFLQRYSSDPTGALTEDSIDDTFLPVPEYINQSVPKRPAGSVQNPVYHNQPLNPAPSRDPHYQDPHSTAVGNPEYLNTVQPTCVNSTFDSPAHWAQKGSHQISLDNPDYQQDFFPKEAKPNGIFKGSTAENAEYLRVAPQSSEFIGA
T5 sequence (P00533 with tags, fused parts or gaps DEL746-750/T790M/C797S, form open): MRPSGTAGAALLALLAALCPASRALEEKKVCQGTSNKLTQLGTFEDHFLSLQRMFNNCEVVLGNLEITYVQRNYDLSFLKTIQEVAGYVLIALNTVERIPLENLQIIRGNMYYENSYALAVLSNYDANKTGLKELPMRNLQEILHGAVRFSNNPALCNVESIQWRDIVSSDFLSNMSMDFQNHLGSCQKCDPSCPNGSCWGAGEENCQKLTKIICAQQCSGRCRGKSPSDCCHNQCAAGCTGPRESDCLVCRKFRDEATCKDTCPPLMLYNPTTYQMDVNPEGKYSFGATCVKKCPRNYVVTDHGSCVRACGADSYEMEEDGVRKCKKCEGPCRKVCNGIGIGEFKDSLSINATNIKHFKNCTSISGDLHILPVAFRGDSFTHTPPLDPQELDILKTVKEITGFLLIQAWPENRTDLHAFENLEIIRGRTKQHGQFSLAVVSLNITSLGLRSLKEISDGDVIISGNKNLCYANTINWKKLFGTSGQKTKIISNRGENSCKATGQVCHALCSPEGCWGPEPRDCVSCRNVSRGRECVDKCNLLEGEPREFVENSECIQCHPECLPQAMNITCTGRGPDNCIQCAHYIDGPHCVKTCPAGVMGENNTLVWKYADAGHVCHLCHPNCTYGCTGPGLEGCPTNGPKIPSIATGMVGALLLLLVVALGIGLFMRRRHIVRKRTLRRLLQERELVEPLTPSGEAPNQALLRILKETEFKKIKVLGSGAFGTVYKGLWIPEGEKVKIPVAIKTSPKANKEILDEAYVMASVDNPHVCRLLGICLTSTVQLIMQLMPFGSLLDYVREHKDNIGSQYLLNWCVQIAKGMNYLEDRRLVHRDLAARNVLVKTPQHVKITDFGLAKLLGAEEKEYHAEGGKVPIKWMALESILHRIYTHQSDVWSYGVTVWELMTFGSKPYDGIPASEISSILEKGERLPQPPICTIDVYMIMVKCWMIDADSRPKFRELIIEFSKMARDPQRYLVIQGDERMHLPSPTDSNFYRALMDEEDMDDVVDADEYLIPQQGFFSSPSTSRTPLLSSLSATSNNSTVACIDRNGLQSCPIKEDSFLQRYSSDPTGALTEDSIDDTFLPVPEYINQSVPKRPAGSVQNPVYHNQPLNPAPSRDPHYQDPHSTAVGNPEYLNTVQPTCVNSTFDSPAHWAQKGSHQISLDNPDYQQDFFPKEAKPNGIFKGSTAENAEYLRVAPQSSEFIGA
T6 sequence (P00533 25-1210 T790M/C797S/L858R): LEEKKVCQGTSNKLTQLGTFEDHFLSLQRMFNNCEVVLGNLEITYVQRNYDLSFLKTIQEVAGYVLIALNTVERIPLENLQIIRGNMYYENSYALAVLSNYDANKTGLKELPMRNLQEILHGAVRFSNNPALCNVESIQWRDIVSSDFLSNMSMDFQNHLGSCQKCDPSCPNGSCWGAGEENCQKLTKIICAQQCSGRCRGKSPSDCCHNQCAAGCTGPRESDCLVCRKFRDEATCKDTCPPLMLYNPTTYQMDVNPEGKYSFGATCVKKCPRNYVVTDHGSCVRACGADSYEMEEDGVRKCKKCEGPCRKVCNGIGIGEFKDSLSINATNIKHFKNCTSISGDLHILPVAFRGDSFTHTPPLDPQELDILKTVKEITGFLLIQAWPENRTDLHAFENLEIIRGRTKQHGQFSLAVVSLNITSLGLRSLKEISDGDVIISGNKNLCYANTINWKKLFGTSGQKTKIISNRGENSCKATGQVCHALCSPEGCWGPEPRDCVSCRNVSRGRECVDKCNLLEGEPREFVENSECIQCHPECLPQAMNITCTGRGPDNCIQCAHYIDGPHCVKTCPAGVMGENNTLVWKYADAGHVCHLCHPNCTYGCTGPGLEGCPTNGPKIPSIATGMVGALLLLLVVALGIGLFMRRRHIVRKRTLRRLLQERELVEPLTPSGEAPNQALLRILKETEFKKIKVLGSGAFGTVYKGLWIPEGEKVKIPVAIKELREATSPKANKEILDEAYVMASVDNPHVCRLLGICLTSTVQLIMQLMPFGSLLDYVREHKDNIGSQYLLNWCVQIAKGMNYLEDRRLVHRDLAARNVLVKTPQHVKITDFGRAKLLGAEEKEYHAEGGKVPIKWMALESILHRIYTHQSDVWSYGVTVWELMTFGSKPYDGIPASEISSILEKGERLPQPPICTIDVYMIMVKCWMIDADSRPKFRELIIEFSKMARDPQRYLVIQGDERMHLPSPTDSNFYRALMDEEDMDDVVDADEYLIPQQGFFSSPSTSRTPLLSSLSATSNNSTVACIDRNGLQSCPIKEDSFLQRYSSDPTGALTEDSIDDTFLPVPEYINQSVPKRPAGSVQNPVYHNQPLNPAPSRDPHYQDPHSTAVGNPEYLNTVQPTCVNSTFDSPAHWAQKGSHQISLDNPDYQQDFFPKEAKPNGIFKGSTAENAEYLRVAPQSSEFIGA

Row | pIC50 [1] | pIC50 [2] | pIC50 [3] | pIC50 [4] | pIC50 [5] | pIC50 [6] | Compound
1 | ≥ 7.30 | ≥ 7.30 | ≥ 7.30 | ≥ 7.30 | ≥ 7.30 | ≥ 7.30 | CCc1cc(Nc2ncc(C(F)(F)F)c(Nc3ccc4nccnc4c3N(C)S(C)(=O)=O)n2)c(OC)cc1N1CCC(N(C)C)CC1 [Compound I-206]
2 | ≥ 7.30 | 6.30 to 7.30 | ≥ 7.30 | 6.30 to 7.30 | ≥ 7.30 | ≥ 7.30 | COc1cc(N2CCN(C)CC2)c(C)cc1Nc1ncc(C(F)(F)F)c(Nc2ccc3nccnc3c2N(C)S(C)(=O)=O)n1 [Compound I-207]
3 | ≥ 7.30 | ≥ 7.30 | ≥ 7.30 | 6.30 to 7.30 | ≥ 7.30 | ≥ 7.30 | CCc1cc(Nc2ncc(C(F)(F)F)c(Nc3ccc4nccnc4c3N(C)S(C)(=O)=O)n2)c(OC)cc1N1CCN(C)CC1 [Compound I-208]
4 | ≥ 7.30 | ≥ 7.30 | ≥ 7.30 | 6.30 to 7.30 | ≥ 7.30 | ≥ 7.30 | COc1cc(N2CCC(N(C)C)C2)c(C)cc1Nc1ncc(C(F)(F)F)c(Nc2ccc3nccnc3c2N(C)S(C)(=O)=O)n1 (stereo not drawn) [Compound I-209]
5 | ≥ 7.30 | ≥ 7.30 | ≥ 7.30 | ≥ 7.30 | ≥ 7.30 | ≥ 7.30 | CCc1cc(Nc2ncc(C(F)(F)F)c(Nc3ccc4nccnc4c3N(C)S(C)(=O)=O)n2)c(OC)cc1N1CCC(N(C)C)C1 (stereo not drawn) [Compound I-210]
6 | ≥ 7.30 | ≥ 7.30 | ≥ 7.30 | ≥ 7.30 | ≥ 7.30 | ≥ 7.30 | CCN(c1c(Nc2nc(Nc3cc(CC4CC4)c(N4CCC(N5CCN(C)CC5)CC4)cc3OC)ncc2Br)ccc2nccnc12)S(C)(=O)=O [Compound I-213]
7 | 6.30 to 7.30 | 6.30 to 7.30 | 6.30 to 7.30 | 6.30 to 7.30 | ≥ 7.30 | ≥ 7.30 | COc1cc(N2CCC(N3CCN(C)CC3)CC2)c(CC2CC2)cc1Nc1ncc(Br)c(Nc2ccc3nccnc3c2N(C)S(=O)(=O)C2CC2)n1 [Compound I-220]
8 | ≥ 7.30 | 6.30 to 7.30 | ≥ 7.30 | 6.30 to 7.30 | ≥ 7.30 | ≥ 7.30 | COc1cc(N2CCC(N(C)C)CC2)c(C)cc1Nc1ncc(Br)c(Nc2ccc3nccnc3c2N(C)S(=O)(=O)C2CC2)n1 [Compound I-221]
9 | ≥ 7.30 | 6.30 to 7.30 | ≥ 7.30 | 6.30 to 7.30 | ≥ 7.30 | ≥ 7.30 | COc1cc(N2CCC(N(C)C)C2)c(C)cc1Nc1ncc(Br)c(Nc2ccc3nccnc3c2N(C)S(=O)(=O)C2CC2)n1 (stereo not drawn) [Compound I-222]
10 | ≥ 7.30 | 6.30 to 7.30 | ≥ 7.30 | 6.30 to 7.30 | ≥ 7.30 | ≥ 7.30 | C=Cc1cc(Nc2ncc(Cl)c(Nc3ccc4nccnc4c3N(CC)S(C)(=O)=O)n2)c(OC(F)(F)F)cc1N1CCC(N2CCN(C)CC2)CC1 [Compound I-228]
11 | 6.30 to 7.30 | 6.30 to 7.30 | ≥ 7.30 | 6.30 to 7.30 | ≥ 7.30 | ≥ 7.30 | CCN(c1c(Nc2nc(Nc3cc(CC4CC4)c(N4CCC(N5CCN(C)CC5)CC4)cc3OC)ncc2Cl)ccc2nccnc12)S(C)(=O)=O [Compound I-229]
12 | ≥ 7.30 | ≥ 7.30 | ≥ 7.30 | ≥ 7.30 | ≥ 7.30 | ≥ 7.30 | CCN(c1c(Nc2nc(Nc3cc(C)c(N4CCC(N(C)C)CC4)cc3OC)ncc2Cl)ccc2nccnc12)S(C)(=O)=O [Compound I-230]
13 | 6.30 to 7.30 | ≥ 7.30 | ≥ 7.30 | ≥ 7.30 | ≥ 7.30 | ≥ 7.30 | CCN(c1c(Nc2nc(Nc3cc(C)c(N4CCN(C)CC4)cc3OC)ncc2Cl)ccc2nccnc12)S(C)(=O)=O [Compound I-231]
14 | ≥ 7.30 | ≥ 7.30 | ≥ 7.30 | ≥ 7.30 | ≥ 7.30 | ≥ 7.30 | CCc1cc(Nc2ncc(Cl)c(Nc3ccc4nccnc4c3N(CC)S(C)(=O)=O)n2)c(OC)cc1N1CCN(C)CC1 [Compound I-232]
15 | ≥ 7.30 | ≥ 7.30 | ≥ 7.30 | ≥ 7.30 | ≥ 7.30 | ≥ 7.30 | CCN(c1c(Nc2nc(Nc3cc(C)c(N4CCC(N(C)C)C4)cc3OC)ncc2Cl)ccc2nccnc12)S(C)(=O)=O (stereo not drawn) [Compound I-233]

More lines, now with the values behind:

Row | Compound | pIC50 [1] | pIC50 [2] | pIC50 [3] | pIC50 [4] | pIC50 [5] | pIC50 [6]
16 | CCN(c1c(Nc2nc(Nc3ccc(N4CCC(N5CCN(C)CC5)CC4)cc3OC)ncc2Br)ccc2nccnc12)S(C)(=O)=O [Compound I-211] | ≥ 7.30 | ≥ 7.30 | ≥ 7.30 | 6.30 to 7.30 | ≥ 7.30 | ≥ 7.30
17 | CCc1cc(Nc2ncc(Br)c(Nc3ccc4nccnc4c3N(CC)S(C)(=O)=O)n2)c(OC)nc1N1CCC(N2CCN(C)CC2)CC1 [Compound I-212] | ≥ 7.30 | 6.30 to 7.30 | ≥ 7.30 | 6.30 to 7.30 | ≥ 7.30 | ≥ 7.30
18 | CCS(=O)(=O)N(C)c1c(Nc2nc(Nc3ccc(N4CCC(N5CCN(C)CC5)CC4)cc3OC)ncc2Br)ccc2nccnc12 [Compound I-214] | ≥ 7.30 | 6.30 to 7.30 | ≥ 7.30 | 6.30 to 7.30 | ≥ 7.30 | 6.30 to 7.30
19 | COc1cc(N2CCC(N3CCN(C)CC3)CC2)ccc1Nc1ncc(Br)c(Nc2ccc3nccnc3c2N(C)S(=O)(=O)C2CC2)n1 [Compound I-215] | ≥ 7.30 | 6.30 to 7.30 | ≥ 7.30 | 6.30 to 7.30 | ≥ 7.30 | ≥ 7.30
20 | COc1nc(N2CCC(N3CCN(C)CC3)CC2)ccc1Nc1ncc(Br)c(Nc2ccc3nccnc3c2N(C)S(=O)(=O)C2CC2)n1 [Compound I-216] | 5.60 to 6.30 | 5.60 to 6.30 | 5.60 to 6.30 | 5.60 to 6.30 | 6.30 to 7.30 | 6.30 to 7.30
21 | CCc1cc(Nc2ncc(Br)c(Nc3ccc4nccnc4c3N(C)S(=O)(=O)C3CC3)n2)c(OC)nc1N1CCC(N2CCN(C)CC2)CC1 [Compound I-218] | ≥ 7.30 | 6.30 to 7.30 | ≥ 7.30 | 6.30 to 7.30 | ≥ 7.30 | ≥ 7.30
22 | C=Cc1cc(Nc2ncc(Br)c(Nc3ccc4nccnc4c3N(C)S(=O)(=O)C3CC3)n2)c(OC(F)(F)F)cc1N1CCC(N2CCN(C)CC2)CC1 [Compound I-219] | ≥ 7.30 | 6.30 to 7.30 | 6.30 to 7.30 | 6.30 to 7.30 | ≥ 7.30 | 6.30 to 7.30
23 | COc1cc(N2CCC(N3CCN(C)CC3)CC2)ccc1Nc1ncc(Br)c(Nc2ccc3nccnc3c2N(C2CC2)S(C)(=O)=O)n1 [Compound I-223] | ≥ 7.30 | 6.30 to 7.30 | ≥ 7.30 | 6.30 to 7.30 | ≥ 7.30 | ≥ 7.30
24 | CCN(c1c(Nc2nc(Nc3ccc(N4CCC(N5CCN(C)CC5)CC4)cc3OC)ncc2Cl)ccc2nccnc12)S(C)(=O)=O [Compound I-224] | 6.30 to 7.30 | 6.30 to 7.30 | ≥ 7.30 | 6.30 to 7.30 | ≥ 7.30 | ≥ 7.30
25 | CCN(c1c(Nc2nc(Nc3ccc(N4CCC(N5CCN(C)CC5)CC4)nc3OC)ncc2Cl)ccc2nccnc12)S(C)(=O)=O [Compound I-225] | 6.30 to 7.30 | 6.30 to 7.30 | 6.30 to 7.30 | 6.30 to 7.30 | ≥ 7.30 | 6.30 to 7.30
26 | CCN(c1c(Nc2nc(Nc3cc(C)c(N4CCC(N5CCN(C)CC5)CC4)nc3OC)ncc2Cl)ccc2nccnc12)S(C)(=O)=O [Compound I-226] | 6.30 to 7.30 | 5.60 to 6.30 | 6.30 to 7.30 | 5.60 to 6.30 | 5.60 to 6.30 | 5.60 to 6.30
27 | CCc1cc(Nc2ncc(Cl)c(Nc3ccc4nccnc4c3N(CC)S(C)(=O)=O)n2)c(OC)nc1N1CCC(N2CCN(C)CC2)CC1 [Compound I-227] | ≥ 7.30 | ≥ 7.30 | ≥ 7.30 | 6.30 to 7.30 | ≥ 7.30 | ≥ 7.30
28 | CCc1cc(Nc2ncc(Cl)c(Nc3ccc4nccnc4c3N(C)S(=O)(=O)CC)n2)c(OC)nc1N1CCC(N2CCN(C)CC2)CC1 [Compound I-234] | ≥ 7.30 | 6.30 to 7.30 | ≥ 7.30 | 6.30 to 7.30 | ≥ 7.30 | ≥ 7.30
